Paper PMC8162438, “Cancer cell-selective modulation of mitochondrial respiration and metabolism by potent organogold(III) dithiocarbamates” (Chemical Science, 2020)

Tested on: MDA-MB-231
Experiment: Mitochondrial membrane potential (JC-1)
Type: cell-based
Conditions: MDA-MB-231, 10 μM, 6 h, versus DMSO
Text: Activated DEG included NDUFS7, [complex I], COX7A1 gene [complex IV], and ATP5O, ATP5I genes [complex V] whereas the inhibited DEG were MT-ND4L [complex I], SDHD gene [complex II], and ATP5C, ATP5F [complex V]. […] These findings prompted functional biology experiments to further corroborate the effect of 2a or its mechanism of action in TNBC. We examined the effect of 2a on mitochondrial membrane potential, assayed by JC-1 dye.[85] […] We used carbonyl cyanide m-chlorophenyl hydrazine (CCCP), an uncoupler, as a positive control to validate the experiment. The MMP is a key driving force in ATP synthesis and overall a key factor in maintaining redox homeostasis throughout the cell.[86] […]
text (Figure 5C). Samples 37 °C, NaN 3, methyl-β-cyclodextrin, and chlorpromazine hydrochloride were calculated using calibration curve Fig. S134 and samples wortmannin, genistein, and +4 °C were calculated using calibration curve Fig. S135. […]
Prior to analysis samples were required to pass three tests before library construction: 1) nanodrop for RNA purity (OD 260/OD280), 2) agarose gel electrophoresis for RNA integrity and potential contamination, and 3) Agilent 2100 check RNA integrity. […] After library construction, qPCR was used to accurately quantify the library effective concentration (> 2 nM), in order to ensure the library quality. […]

C[N+](C)=C1[S][Au-2]2([S]1)[c]1ccccc1Cc1cccc[n+]12.F[P-](F)(F)(F)(F)F (stereo not shown) [2a]
Mitochondrial membrane potential (JC-1): strong depolarization of the MMP
